Values after ≈ are worked out from the molar mass of the structure shown.
Tests used:
[1] = system: methicillin-resistant Staphylococcus aureus (MRSA); test: MIC and MBC, broth microdilution, MRSA (Table 1); assay type: cell-based; conditions: for MBC / MIC: Staphylococcus aureus; for MIC: first value of cell
Description: (§1) To investigate the antimicrobial impact of structural variance in the novel bioresorbable CSA compounds disclosed herein,Pseudomonas aeruginosa 01 (PA01), methicillin-resistant Staphylococcus aureus (MRSA), and Candida albicans (CA) were selected, representing Gram-negative bacterial, Gram-positive bacterial, and fungal pathogens of high or critical priority on the world health organization's priority lists for bacteria and fungi. Earlier applications of CSA compounds have focused on preventing medical device infections, and all three strains are commonly found in colonized implants, making efficacy against these pathogens an important indicator of future applicability.
(§2) All compounds were screened against these pathogens to determine their minimum inhibitory concentration (MIC), minimum bactericidal concentration (MBC), and minimum fungicidal concentration (MFC) using a broth microdilution method. […] Of these three, only CSA-4110 was similarly active against PA01and CA, inhibiting growth at 8 μg/mL.

[2] = system: Pseudomonas aeruginosa 01 (PA01); test: MIC and MBC, broth microdilution, PA01 (Table 1); assay type: cell-based; conditions: for MBC or MFC / MBC: value in parentheses; for MBC / MIC: Pseudomonas aeruginosa; for MIC: first value of cell
Description: as §1, §2

[3] = system: Candida albicans (CA); test: MIC and MFC, broth microdilution, CA (Table 1); assay type: cell-based; conditions: for MBC / MIC: Candida albicans; for MBC / MBC or MFC: MFC, value in parentheses; for MIC: first value of cell
Description: as §1, §2

[4] = system: Candida albicans 90028; test: Example 1 MIC/MFC (FIG. 1, FIG. 2), C. albicans; assay type: cell-based
Method: (§3) The antimicrobial activities of CSA-4108, CSA-4110, CSA-4112, and CSA-4114 were determined relative to methicillin-resistant Staphylococcus aureus (MRSA), Pseudomonas aeruginosa (Pa), and Candida albicans 90028. The minimum inhibitory concentration (MIC) for CSA-4108, CSA-4110, CSA-4112, and CSA-4114 relative to the foregoing microbes is graphically reported in FIG. 1. The minimum bactericidal concentration (MBC) and minimum fungicidal concentration […] for CSA-4108, CSA-4110, CSA-4112, and CSA-4114 relative to the foregoing microbes are graphically reported in FIG. 2.

[5] = system: MRSA ATCC BAA-42; test: Membrane depolarization, DiSC2(5) fluorescence; assay type: cell-based, Staphylococcus aureus; conditions: 8 μg/mL, FIG. 5
Method: Reference is made to FIGS. 4 and 5. […] CSA-131 or CSA-4110 was added at 140 second to achieve 8 μg/mL after addition.
Antimicrobial peptides (AMPs) and CSA compounds are known to permeabilize bacterial membranes. For bacterial survival, the cytoplasmic membrane must be polarized. Depolarization of this membrane prevents ATP synthesis and leads to cell death. The dye 3,3′-diethylthiadicarbocyanine iodide (DiSC2(5)) can be used to measure cell membrane polarization. Fluorescence of this dye is decreased when it inserts into polarized membranes, and membrane depolarization results in substantial increases in fluorescence (see FIG. 5).
MRSA was used to explore the impact of CSA-4110 on membrane depolarization and compared results to those with ceragenin CSA-131. […] Fluorescence was monitored over time after addition of CSA-4110 or CSA-131. which incorporated into cellular membranes.

[6] = system: strains of Staphylococcus aureus, Pseudomonas aeruginosa, and Candida albicans; conditions: previous work; strains of S. aureus, P. aeruginosa, C. albicans; cited from earlier work
[7] = system: PA01, MRSA and CA; test: MIC, MBC and MFC screen, all three pathogens (summary statements); assay type: cell-based; conditions: compared with CSA-4110
Description: as §1, §2

[8] = system: methicillin-resistant Staphylococcus aureus (MRSA); test: Example 1 MIC/MBC (FIG. 1, FIG. 2), MRSA; assay type: cell-based
Method: as §3

[9] = MBC, value in parentheses, kills at least 99.9%

| SMILES | MBC [1, 9] [µg/mL] | MIC [1] [µg/mL] | MBC or MFC [2] | MBC [2] [µg/mL] | MIC [2] [µg/mL] | MBC [3] [µg/mL] | MIC [3] [µg/mL] | MBC or MFC [3] | MIC (FIG. 1), ranking in words [4] | speed of depolarization of MRSA cells, comparison [5] | fluorescence of DiSC2(5) after addition (membrane depolarization) ([5]; added at 140 seconds) | MICs [6] [µg/mL] | MBC or MFC [1, 9] | antimicrobial activity in MIC and MBC/MFC assays, in words [7] | MIC (FIG. 1), ranking in words [8] | MFC (FIG. 2), ranking in words [4] |
| --- | --- | --- | --- | --- | --- | --- | --- | --- | --- | --- | --- | --- | --- | --- | --- | --- |
| CCCC(=O)OCC(COC(=O)CC[C@@H](C)[C@H]1CC[C@H]2[C@@H]3[C@H](OC(=O)CCN)C[C@@H]4C[C@H](OC(=O)CCN)CC[C@]4(C)[C@H]3C[C@H](OC(=O)CCN)[C@]12C)OC(=O)CCC (stereo partly shown) [CSA-4204] | 8 (≈ 9.57 µM) | ≤ 8 | > 100 µg/mL | 100 (≈ 120 µM) | 64 (≈ 76.5 µM) | 32 (≈ 38.3 µM) | 16 (≈ 19.1 µM) |  |  |  |  |  |  |  |  |  |
| CCCCCCCC(=O)OCC(COC(=O)CC[C@@H](C)[C@H]1CC[C@H]2[C@@H]3[C@H](OC(=O)CCN)C[C@@H]4C[C@H](OC(=O)CCN)CC[C@]4(C)[C@H]3C[C@H](OC(=O)CCN)[C@]12C)OC(=O)CCCCCCC (stereo partly shown) [CSA-4208] | 64 (≈ 67.5 µM) | 32 (≈ 33.7 µM) |  | > 100 | 64 (≈ 67.5 µM) | 64 (≈ 67.5 µM) | 64 (≈ 67.5 µM) |  |  |  |  |  |  |  |  |  |
| CCCCCCCCCC(=O)OCC(COC(=O)CC[C@@H](C)[C@H]1CC[C@H]2[C@@H]3[C@H](OC(=O)CCN)C[C@@H]4C[C@H](OC(=O)CCN)CC[C@]4(C)[C@H]3C[C@H](OC(=O)CCN)[C@]12C)OC(=O)CCCCCCCCC (stereo partly shown) [CSA-4210] | > 100 | > 100 |  | > 100 | > 100 | > 100 | > 100 |  |  |  |  |  |  |  |  |  |
| CCCCCCCCCCCC(=O)OCC(O)COC(=O)CC[C@@H](C)[C@H]1CC[C@H]2[C@@H]3[C@H](OC(=O)CCN)C[C@@H]4C[C@H](OC(=O)CCN)CC[C@]4(C)[C@H]3C[C@H](OC(=O)CCN)[C@]12C (stereo partly shown) [CSA-4112] | 32 (≈ 36.4 µM) | 16 (≈ 18.2 µM) |  | 64 (≈ 72.9 µM) | 64 (≈ 72.9 µM) | 16 (≈ 18.2 µM) | 16 (≈ 18.2 µM) | 16 (16) μg/mL | same MIC |  |  |  |  |  |  |  |
| CCCCCCCCCCCCNCCC[C@@H](C)[C@H]1CC[C@H]2[C@@H]3[C@H](OCCCN)C[C@@H]4C[C@H](OCCCN)CC[C@]4(C)[C@H]3C[C@H](OCCCN)[C@]12C.Cl.Cl.Cl.Cl [CSA-131] |  |  |  |  |  |  |  |  |  | more rapidly than CSA-4110 | rapid increase of fluorescence | 0.5 to 2 |  |  |  |  |
| CCCCCC(=O)OCC(COC(=O)CC[C@@H](C)[C@H]1CC[C@H]2[C@@H]3[C@H](OC(=O)CCN)C[C@@H]4C[C@H](OC(=O)CCN)CC[C@]4(C)[C@H]3C[C@H](OC(=O)CCN)[C@]12C)OC(=O)CCCCC (stereo partly shown) [CSA-4206] | 8 (≈ 8.97 µM) | ≤ 8 | 32 (32) μg/mL | 32 (≈ 35.9 µM) | 32 (≈ 35.9 µM) | 8 (≈ 8.97 µM) | 8 (≈ 8.97 µM) | 8 (8) μg/mL |  |  |  |  | 8 (8) μg/mL |  |  |  |
| CCCCCCCCCC(=O)OC[C@@H](O)COC(=O)CC[C@@H](C)[C@H]1CC[C@H]2[C@@H]3[C@H](OC(=O)CCN)C[C@@H]4C[C@H](OC(=O)CCN)CC[C@]4(C)[C@H]3C[C@H](OC(=O)CCN)[C@]12C [CSA-4110R] | 4 (≈ 4.71 µM) | 4 (≈ 4.71 µM) |  | 8 (≈ 9.41 µM) | 4 (≈ 4.71 µM) | 8 (≈ 9.41 µM) | 8 (≈ 9.41 µM) |  |  |  |  |  |  | performed comparably to CSA-4110 |  |  |
| CCCCCCCCCC(=O)OC[C@H](O)COC(=O)CC[C@@H](C)[C@H]1CC[C@H]2[C@@H]3[C@H](OC(=O)CCN)C[C@@H]4C[C@H](OC(=O)CCN)CC[C@]4(C)[C@H]3C[C@H](OC(=O)CCN)[C@]12C [CSA-4110S] | 4 (≈ 4.71 µM) | 4 (≈ 4.71 µM) |  | 16 (≈ 18.8 µM) | 8 (≈ 9.41 µM) | 8 (≈ 9.41 µM) | 8 (≈ 9.41 µM) |  |  |  |  |  |  | performed comparably to CSA-4110 |  |  |
| CCCCCCCC(=O)OCC(O)COC(=O)CC[C@@H](C)[C@H]1CC[C@H]2[C@@H]3[C@H](OC(=O)CCN)C[C@@H]4C[C@H](OC(=O)CCN)CC[C@]4(C)[C@H]3C[C@H](OC(=O)CCN)[C@]12C (stereo partly shown) [CSA-4108] | 32 (≈ 38.9 µM) | 16 (≈ 19.5 µM) |  | > 100 | 64 (≈ 77.8 µM) | 16 (≈ 19.5 µM) | 16 (≈ 19.5 µM) | 16 (16) μg/mL | same MIC |  |  |  |  |  |  |  |
| CCCCCCCCCCCCCC(=O)OCC(O)COC(=O)CC[C@@H](C)[C@H]1CC[C@H]2[C@@H]3[C@H](OC(=O)CCN)C[C@@H]4C[C@H](OC(=O)CCN)CC[C@]4(C)[C@H]3C[C@H](OC(=O)CCN)[C@]12C (stereo partly shown) [CSA-4114] | > 100 | 64 (≈ 70.6 µM) |  | > 100 | > 100 | 64 (≈ 70.6 µM) | 64 (≈ 70.6 µM) |  | highest MIC |  |  |  |  |  | highest MIC | highest MFC |
